In US20180228124A1, “ANIMAL LITTER COMPRISING CINNAMIC AND/OR ROSMARINIC COMPOUNDS” (The Clorox Company, priority 2017, published 2018):

Tested on: ammonia formation
Test: Ammonia formation in sodium bentonite clay litter contacted with feline urine, monitored daily
Conditions: for ammonia formation versus virgin clay litter control: 0.5 g per 100 g of litter, FIG. 3; for inhibition of ammonia formation: 0.02 g per 100 g of litter (0.02% by weight); for inhibition of ammonia formation / ammonia at day 11: FIG. 2; for Day 11 NH3 PPM (mean): treatment dosed at 0.5 g per 100 g of litter, FIG. 3 / FIG. 4 data
Experimental: The efficacy of various anti-oxidant rich spices was tested for ability to inhibit ammonia growth in litter compositions. FIG. 1 illustrates the results for each test that was performed. Each litter substrate included sodium bentonite clay. A control included virgin clay, with no added spice. Each of the other samples tested included a particular spice, dosed onto or into the clay litter substrate at 1.5 g per 100 g of clay substrate (a 1.5% loading of each of the tested spices). The tested spices were cinnamon, peppermint, rosemary, rubbing sage, spearmint, star anise, sumac, thyme, and turmeric. A control was also tested that included no spice at all. Each sample was contacted with 20 mL of feline urine, and then monitored over a period of 11 days, with the mean PPM of ammonia recorded for each day.
Each of the treatments tested in FIG. 3 were dosed at 0.5 g per 100 g of litter. Many of the other treatments tested were similarly dosed, unless stated otherwise (i.e., 0.5 g per 100 g of litter).

## O.O.O.O.O.O.O.O.O.O.O.O.O=S(=O)([O-])[O-].O=S(=O)([O-])[O-].[Al+3].[K+] [alum, hydrated potassium aluminum sulfate, reference compound]
  ammonia formation versus virgin clay litter control: better than the virgin clay litter control

## C[C@H]1[C@H](C)CC[C@]2(C(=O)O)CC[C@]3(C)C(=CC[C@@H]4[C@@]5(C)CC[C@H](O)C(C)(C)[C@@H]5CC[C@]43C)[C@H]12 [ursolic acid, Ursolic Acid]
  inhibition of ammonia formation: significant inhibition of ammonia formation

## O=C/C=C/c1ccccc1 [Cinnamaldehyde]
  Day 11 NH3 PPM (mean): 4.150 PPM

## COc1cc(/C=C/C(=O)O)cc(OC)c1O [Sinapic acid, Sinapic Acid]
  Day 11 NH3 PPM (mean): 38.428 PPM

## O=C(O)CCc1ccccc1 [Hydrocinnamic acid]
  Day 11 NH3 PPM (mean): 45.720 PPM

## O=C([O-])[O-].O=C([O-])[O-].OO.OO.OO.[Na+].[Na+].[Na+].[Na+] [sodium percarbonate, reference compound]
  ammonia formation versus virgin clay litter control: better than the virgin clay litter control

## CCOC(=O)/C=C/c1ccccc1 [Ethyl cinnamate, Ethyl Cinnamate, reference compound]
  ammonia formation versus virgin clay litter control: promotes ammonia (odor) formation
  Day 11 NH3 PPM (mean): 126.324 PPM

## O=C(O)/C=C/c1ccccc1 [Trans-cinnamic acid, Trans-Cinnamic Acid]
  Day 11 NH3 PPM (mean): 4.493 PPM

## CC(C)c1cc2c(c(O)c1O)[C@@]1(C(=O)O)CCCC(C)(C)[C@@H]1CC2 [carnosic acid, Carnosic Acid]
  inhibition of ammonia formation: significant inhibition of ammonia formation

## CC(O)C(=O)[O-].[Ag+] (stereo not shown) [silver lactate, reference compound]
  ammonia formation versus virgin clay litter control: better than the virgin clay litter control

## O=C(O)/C=C/c1ccc(O)cc1 [p-coumaric acid, p-Coumaric Acid]
  Day 11 NH3 PPM (mean): 26.199 PPM

## borate [reference compound]
Litter substrate treated with 0.44% borate
  ammonia at day 11: 76 ppm

## O=C(/C=C/c1ccc(O)c(O)c1)O[C@H](Cc1ccc(O)c(O)c1)C(=O)O [Rosmarinic acid, Rosmarinic Acid]
0.5% rosmarinic acid, FIG. 4
  efficacy of odor inhibition compared with 0.44% borate treated litter: comparable in efficacy to the borate treated litter substrate
  Day 11 NH3 PPM (mean): 20-30 PPM

## O=C(O)/C=C/c1ccc(O)c(O)c1 [Caffeic acid, Caffeic Acid]
0.5% caffeic acid (0.5 g per 100 g of litter)
  ammonia at day 11: less than 60 ppm
1% caffeic acid (1 g per 100 g of litter)
  ammonia at day 11: less than 40 ppm
  Day 11 NH3 PPM (mean): 47.894 PPM

## COc1cc(/C=C/C(=O)O)ccc1O [Ferulic acid, Ferulic Acid]
  Day 11 NH3 PPM (mean): 62.182 PPM
